The values that follow come from publication PMC9781652, “Dinuclear Iron Complexes of Iminopyridine-Based Ligands as Selective Cytotoxins for Tumor Cells and Inhibitors of Cancer Cell Migration” (Pharmaceutics, 2022).

Structures are written as SMILES.

The subject of one experiment is supercoiled pUC18 DNA. Nature of the experiment: DNA interaction analysis by agarose gel electrophoresis. In kind it is biochemical. Particulars: 24 h, 37 °C; for Effect on pUC18 DNA in the presence of H2O2 at the highest concentrations: with H2O2. How it is done: The interaction of DNA with the compounds was monitored in an agarose gel electrophoresis as previously described. […] Two other samples were included in the assays: a sample of pUC18 DNA alone as negative control and a sample of pUC18 DNA with 5 µg/mL cisplatin for comparison purposes. […] Gels were stained with ethidium bromide (1 µg/mL in TBE) for 15 min and DNA bands were visualized under UV light.

The test system of experiment [1] is NCI-H460 human lung carcinoma cells. Put plainly: Cell proliferation assay (MTT), NCI-H460. In kind it is cell-based. Particulars: for IC50: 72 h exposure, MTT, mean ± SE; for SI NCI-H460 (selectivity index): ratio IC50 CCD-18Co / IC50 NCI-H460. How it is done: (§1) Cells were seeded into 96-well plates at densities of 1500 cells per well for OVCAR-8, 1900 for NCI-H460, and 4000 for CCD-18Co. After 24 h of incubation, they were treated for 72 h with different concentrations of the compounds (concentration range: 0.01 to 6 μM for OVCAR-8; 0.05 to 2 μM for NCI-H460; and 0.07 to 70 μM for CCD-18Co cells). When indicated, cells were also incubated with 30 µM of the ROS scavenger Manganese (III) 5,10,15,20-tetrakis (4-benzoic acid) porphyrin (MnTBAP) (Calbiochem, San Diego, CA, USA). Cell viability was measured using the MTT assay as previously described. The IC50 value corresponds to the concentration of the assayed compound that is required to inhibit the cell proliferation by 50%, and was calculated by linear interpolation from the obtained growth curves. All data are reported as the mean ± standard error (SE) calculated from at least three independent experiments with three replicates in each.

Experiment [2] relates to CCD-18Co human colon fibroblasts. Nature of the experiment: Cell proliferation assay (MTT), non-tumor CCD-18Co. It counts as cell-based. The note with it: non-tumor cells, 72 h exposure, mean ± SE. How it is done: as §1
The subject of experiment [3] is OVCAR-8 human ovarian carcinoma cells. Put plainly: Cell proliferation assay (MTT), OVCAR-8. In kind it is cell-based. Particulars: for IC50: 72 h exposure, MTT, mean ± SE; for SI OVCAR-8 (selectivity index): ratio IC50 CCD-18Co / IC50 OVCAR-8. How it is done:
as §1

What is called IC50 is the concentration needed to halve the response being measured. Regarding `N.N.[Cl][Pt][Cl]` [Cisplatin, cisplatin, reference compound], the “Interaction with pUC18 DNA in the absence of H2O2” value in the experiment on supercoiled pUC18 DNA (25-100 µM compounds (cisplatin 5 µg/mL), no H2O2) was “migration of the CCC form decreases until it co-migrates with the OC form”. For the same compound, the IC50 in experiment [1] was 1010 ± 140 nM; in experiment [2] it was 31.2 ± 5.76 µM; in experiment [3] it was 6910 ± 1210 nM. In addition, the “SI OVCAR-8 (selectivity index)” value in experiment [3] was found to be 4.5.

As to `CC#N.CC#N.CC#N.CC#N.Cc1cc(N=Cc2ccccn2)c2c(c1)C1CC(O2)Oc2c(N=Cc3ccccn3)cc(C)cc21.Cc1cc(N=Cc2ccccn2)c2c(c1)C1CC(O2)Oc2c(N=Cc3ccccn3)cc(C)cc21.F[B-](F)(F)F.F[B-](F)(F)F.F[B-](F)(F)F.F[B-](F)(F)F.[Fe+2].[Fe+2]` [Compound 7, [Fe21_2(CH3CN)4](BF4)4], the IC50 is 430 ± 30 nM in experiment [1], 7.78 ± 5.67 µM in experiment [2] and 1390 ± 140 nM in experiment [3]. The “SI NCI-H460 (selectivity index)” value in experiment [1] was 18.1. In experiment [3], the “SI OVCAR-8 (selectivity index)” value was 5.6.

In the case of `N.N.O=C([O-])C1(C(=O)[O-])CCC1.[Pt+2]` [Carboplatin, carboplatin, reference compound], the IC50 in experiment [1] turned out to be 12800 ± 2230 nM; in experiment [2] it was 240 ± 25.2 µM; in experiment [3] it was 110000 ± 4200 nM. In experiment [1], the “SI NCI-H460 (selectivity index)” value is listed as 18.8. Also, the “SI OVCAR-8 (selectivity index)” value in experiment [3] came out at 2.1.

Consider `CC#N.CC#N.CC#N.CC#N.Cc1cc(N=Cc2cccc(Br)n2)c2c(c1)C1CC(O2)Oc2c(N=Cc3cccc(Br)n3)cc(C)cc21.Cc1cc(N=Cc2cccc(Br)n2)c2c(c1)C1CC(O2)Oc2c(N=Cc3cccc(Br)n3)cc(C)cc21.F[B-](F)(F)F.F[B-](F)(F)F.F[B-](F)(F)F.F[B-](F)(F)F.[Fe+2].[Fe+2]` [Compound 8, [Fe22_2(CH3CN)4](BF4)4], for which the “Effect on pUC18 DNA in the presence of H2O2 at the highest concentrations” value in the experiment with supercoiled pUC18 DNA is on record as “total DNA degradation”. In experiment [1], the IC50 turned out to be 480 ± 130 nM and the “SI NCI-H460 (selectivity index)” value came out at 14.6. The same compound registered an IC50 in experiment [2] of 7 ± 3.43 µM. In experiment [3], the 50% inhibitory concentration (IC50) came to 1270 ± 390 nM and the “SI OVCAR-8 (selectivity index)” value amounted to 5.5.

In the case of `CC#N.CC#N.CC#N.CC#N.COc1cccc(C=Nc2cc(C)cc3c2OC2CC3c3cc(C)cc(N=Cc4cccc(OC)n4)c3O2)n1.COc1cccc(C=Nc2cc(C)cc3c2OC2CC3c3cc(C)cc(N=Cc4cccc(OC)n4)c3O2)n1.F[B-](F)(F)F.F[B-](F)(F)F.F[B-](F)(F)F.F[B-](F)(F)F.[Fe+2].[Fe+2]` [Compound 11, [Fe25_2(CH3CN)4](BF4)4], the values for the half-inhibitory concentration (IC50) in experiment [1], in experiment [2] and in experiment [3] were 500 ± 100 nM, 12 ± 1.44 µM and 1400 ± 300 nM, respectively. Moreover, the “SI NCI-H460 (selectivity index)” value in experiment [1] stood at 24.1. Besides, the “SI OVCAR-8 (selectivity index)” value in experiment [3] is on record as 8.6.

In the case of `CC#N.CC#N.CC#N.CC#N.Cc1cc(N=Cc2ccc(Br)cn2)c2c(c1)C1CC(O2)Oc2c(N=Cc3ccc(Br)cn3)cc(C)cc21.Cc1cc(N=Cc2ccc(Br)cn2)c2c(c1)C1CC(O2)Oc2c(N=Cc3ccc(Br)cn3)cc(C)cc21.F[B-](F)(F)F.F[B-](F)(F)F.F[B-](F)(F)F.F[B-](F)(F)F.[Fe+2].[Fe+2]` [Compound 9, [Fe23_2(CH3CN)4](BF4)4], the IC50 in experiment [1] stood at 600 ± 40 nM; in experiment [2], 7.2 ± 3.4 µM; in experiment [3], 1780 ± 160 nM. Moreover, the “SI NCI-H460 (selectivity index)” value in experiment [1] is given as 12.0. The “SI OVCAR-8 (selectivity index)” value in experiment [3] was 4.1.

As to `CC#N.CC#N.CC#N.CC#N.Cc1cc(N=Cc2ccc3ccccc3n2)c2c(c1)C1CC(O2)Oc2c(N=Cc3ccc4ccccc4n3)cc(C)cc21.Cc1cc(N=Cc2ccc3ccccc3n2)c2c(c1)C1CC(O2)Oc2c(N=Cc3ccc4ccccc4n3)cc(C)cc21.F[B-](F)(F)F.F[B-](F)(F)F.F[B-](F)(F)F.F[B-](F)(F)F.[Fe+2].[Fe+2]` [Compound 12, [Fe26_2(CH3CN)4](BF4)4], in the experiment on supercoiled pUC18 DNA, the “Effect on pUC18 DNA in the presence of H2O2 at the highest concentrations” value was “total DNA degradation”. For the same compound, in experiment [1], half-maximal inhibition (IC50) was put at 490 ± 80 nM and the “SI NCI-H460 (selectivity index)” value came to 8.1. This compound also returned a concentration for half-maximal inhibition (IC50) in experiment [2] of 4.05 ± 0.62 µM. Moreover, in experiment [3], half-maximal inhibition (IC50) was put at 1240 ± 270 nM and the “SI OVCAR-8 (selectivity index)” value is listed as 3.2.
